Data: US6995281B2, “Methods for selectively removing counterions from compounds and compounds derived from such methods” (Pfizer, Inc., priority 2003, dated 2006)
Where a name gives a salt, the structure may show the parent alone.

Key:
Format in all cases: physicochemical
[1] = Stability of free zwitterion samples at different pH by ion pairing gradient HPLC (Example 6, Table 2); conditions: summary of Table 2
Experimental: Amberlite IRA400 (Cl) resin was rinsed with 3M HCl, water, and then 3M NaOH. Aliquots were 100 ml per 10 g of resin. This procedure was repeated 3 times in order to clean the resin and in order to generate the OH form. A final rinse with water was carried out until the conductivity of the eluting water was 2 μS. The resin was then used to titrate 40 ml of a 50 mg/ml solution of S-[2-[(1-Iminoethyl)amino]ethyl]-2-methyl-L-cysteine dihydrochloride. The concentration is expressed in terms of zwitterion equivalents. Aliquots were taken throughout the titration, filtered and analyzed by HPLC. Subsamples of the aliquots were saved for a second HPLC analysis 1 week after the titration was performed in order to assess the stability of the samples. Additional aliquots were taken for Cl analysis using an ion selective electrode. The pH was also monitored throughout the titration. HPLC analyses were performed using an ion pairing gradient method. […] HPLC Method • Pump A: 20 mM KH2PO4, 10 mM Pentane sulfonic acid, adjusted to pH=3 with phosphoric acid • Pump B: Acetonitrile • Gradient: 0% B at 0 min, 26% B at 15 min, 0% B at 15.1 min • Column: YMC ODS-AQ 120 A, 5 μm, 2.6×150 mm • Wavelength=205 nm

[2] = Pseudo-titration in water with IRA-400(OH) anion exchange resin, samples assayed by HPLC (Example 3); conditions: not a true titration curve
Experimental: 60 g of Amberlite IRA400 (OH) resin (a strongly anionic quaternary ammonium polystyrene resin, about 16–50 mesh, available from Rohm & Haas, Philadelphia, Pa.,) was prewashed with 4.7 percent (by weight) ammonium hydroxide (50 ml of 28 percent ammonium hydroxide, 250 ml deionized water), followed by extensive washing with deionized water. The final conductivity was 6.1 μS.
Samples containing about 0.9 g of S-[2-[(1-Iminoethyl)amino]ethyl]-2-methyl-L-cysteine di-hydrochloride in 142 ml HCl/water solution, were concentrated on a rotary evaporator at 60° C. to an oil. To the oil, diluted to 60 ml with deionized water, was added aliquots of 0.5 g of washed anion exchange resin while stirring. At five minutes after each aliquot of resin was added, the solution pH was measured and a sample removed through a syringe filter. A total of 9 g of anion exchange resin was added. The final pH was 10.8. The resin was removed by filtration and the filtrate was concentrated to an oil by rotary evaporation at 60° C.; no solids formed. The starting material, final filtrate and all intermediate samples were assayed by HPLC and ion chromatography for chloride.
The diamond (solid line) is pH and square (dashed line) is S-[2-[(1-Iminoethyl)amino]ethyl]-2-methyl-L-cysteine (percent initial, by ion chromatography). […] The diamond (solid line) is pH and triangle (broken line) is chloride (by ion chromatography).
These curves are not true titration curves since samples were withdrawn during the progress of the reaction, and since true equilibrium was not attained before the increments of resin were added. Nevertheless, the graphs of FIG. 2 and FIG. 3 illustrate the expected trends. As resin is added to the S-[2-[(1-Iminoethyl)amino]ethyl]-2-methyl-L-cysteine solution the pH rises with change in slope around pH's of 2, 9 and 11. The pH's of slower rise are representative of the pK's of the carboxylic acid, amine and amidine functional groups, respectively. Above a pH of 10, the S-[2-[(1-Iminoethyl)amino]ethyl]-2-methyl-L-cysteine concentration in solution decreases. […]

[3] = HPLC analysis after removal of excess HCl with anion exchange resin (Example 4); conditions: pH raised from 1.04 to 2.5 with Amberlite 400 (OH) resin
Experimental: To 3.3 g of sample containing around 305 mg/ml S-[2-[(1-Iminoethyl)amino]ethyl]-2-methyl-L-cysteine dihydrochloride and around 0.2 eq excess HCl, was added 16.7 g of deioinized water. The pH was 1.04. To 14 ml of this solution, prewashed Amberlite 400 (OH) resin was added to obtain a ph of 2.5. The anion exchange treatment lightened the color of the solution from light yellow to water white. The resin was removed by filtration and the starting material and filtrate product were analyzed by chloride titration and HPLC.

Structure (SMILES)	Degradation when made basic (HPLC) [1]	pH of slower rise representative of the pK of the amidine group [2]	pH of slower rise representative of the pK of the amine group [2]	pH of slower rise representative of the pK of the carboxylic acid group [2]	Qualitative HPLC analysis of starting material and product [3]
CC(=N)NCCSC[C@](C)(N)C(=O)O [S-[2-[(1-Iminoethyl)amino]ethyl]-2-methyl-L-cysteine]	degradation is not immediate but instead occurs over a period of days	~11	~9	~2	–
CC(=N)NCCSC[C@](C)(N)C(=O)O [Example 1, S-[2-[(1-Iminoethyl)amino]ethyl]-2-methyl-L-cysteine, dihydrochloride]	–	–	–	–	no new peaks and no increase in impurities
